Experimental data from ChEMBL document CHEMBL5584298, “Discovery of Cytotoxic Nitric Oxide-Releasing Piperlongumine Derivatives Targeting Wnt/β-Catenin in Colon Cancer Cells” (J Nat Prod, 2024).

Assays:
HCT-116 [1] = test: Antiproliferative activity against human HCT-116 cells incubated for 72 hrs by MTT assay; type: functional, cell-based; conditions: HCT-116, 72 h
A549 [2] = test: Antiproliferative activity against human A549 cells incubated for 24 hrs by MTT assay; type: functional, cell-based; conditions: A549, 24 h
HCT-116 [3] = test: Antiproliferative activity against human HCT-116 cells incubated for 24 hrs by MTT assay; type: functional, cell-based; conditions: HCT-116, 24 h
HCT-116 [4] = test: Antiproliferative activity against human HCT-116 cells at 0.1 to 100 uM by MTT assay; type: functional, cell-based; conditions: dose 0.1-100 µM, time 24-72 hrs, TDE = time-dependent effect
HCT-116 [5] = test: Antiproliferative activity against human HCT-116 cells incubated for 24 to 72 hrs by MTT assay; type: functional, cell-based; conditions: dose 0.1-100 µM, time 24-72 hrs
HCT-116 [6] = test: Induction of NO production in human HCT-116 cells incubated for 6 hrs by Griess reagent based assay; type: functional, cell-based; conditions: dose 1-10 µM
A549 [7] = test: Antiproliferative activity against human A549 cells incubated for 24 to 72 hrs by MTT assay; type: functional, cell-based; conditions: dose 0.1-100 µM, time 24-72 hrs
A549 [8] = test: Antiproliferative activity against human A549 cells incubated for 72 hrs by MTT assay; type: functional, cell-based; conditions: A549, 72 h
A549 [9] = test: Antiproliferative activity against human A549 cells at 0.1 to 100 uM by MTT assay; type: functional, cell-based; conditions: dose 0.1-100 µM, time 24-72 hrs, TDE = time-dependent effect
[10] = Selectivity index, ratio of IC50 for human CCD-841CoN cells to IC50 for human HCT-116 cells; type: toxicity; conditions: CCD-841CoN cells and HCT-116 cells, read-out: Ratio IC50
[11] = Cytotoxicity against human CCD-841CoN cells incubated for 72 hrs by MTT assay; type: toxicity, cell-based
HCT-116 [12] = test: Downregulation of beta-catenin expression in human HCT-116 cells nucleus after 24 hrs by Western blotting analysis; type: functional, subcellular; conditions: dose 0.5-2 µM
HCT-116 [13] = test: Downregulation of beta-catenin expression in human HCT-116 cells cytosol after 24 hrs by Western blotting analysis; type: functional, subcellular; conditions: dose 0.5-2 µM
[14] = Cytotoxicity against human CCD-841CoN cells incubated for 24 hrs by MTT assay; type: toxicity, cell-based
HCT-116 [15] = test: Downregulation of phosphorylated GSK-3beta at Ser9 residue expression in human HCT-116 cells after 24 hrs by Western blotting analysis; type: functional, cell-based; conditions: dose 0.5-2 µM

SMILES | IC50 (HCT-116 [1]) | IC50 (A549 [2]) | IC50 (HCT-116 [3]) | Activity (HCT-116 [4]) | Activity (HCT-116 [5]) | Activity (HCT-116 [6]) | Activity (A549 [7]) | IC50 (A549 [8]) | Activity (A549 [9]) | selectivity ratio [10] | IC50 at 72 h [11] | Activity (HCT-116 [12]) | Activity (HCT-116 [13]) | IC50 at 24 h [14] | Activity (HCT-116 [15])
COc1cc(/C=C/C(=O)N2CCC=C(Cl)C2=O)cc(OC)c1OC | 6.2 µM | 10.2 µM | 11.4 µM |  |  |  |  |  |  |  |  |  |  |  | 
CCN(CC)/[N+]([O-])=N/CONC(=O)/C=C/c1cc(OC)c(OCCCCC(=O)OCO/N=[N+](\[O-])N(CC)CC)c(OC)c1 | 3.9 µM | 5.7 µM | 5.4 µM | Tde | Dose-Dependent Effect | Dose-Dependent Effect | Dose-Dependent Effect | 3.4 µM | Tde |  |  |  |  |  | 
CCN(CC)/[N+]([O-])=N/OCOC(=O)CCCCOc1c(OC)cc(/C=C/C(=O)N2CCC=C(Cl)C2=O)cc1OC | 0.6 µM | 0.8 µM | 0.9 µM | Tde | Dose-Dependent Effect | Dose-Dependent Effect | Dose-Dependent Effect | 0.6 µM | Tde | > 10 | 6.1 µM | Dose-Dependent Effect | Dose-Dependent Effect | 11.3 µM | Dose-Dependent Effect
COc1cc(/C=C/C(=O)NOC/N=[N+](\[O-])N2CCOCC2)cc(OC)c1OCCCCC(=O)OCO/N=[N+](\[O-])N1CCOCC1 | 28 µM | 18.4 µM | 35.6 µM | Tde | Dose-Dependent Effect | Dose-Dependent Effect | Dose-Dependent Effect | 10.6 µM | Tde |  |  |  |  |  | 
COc1cc(/C=C/C(=O)N2CCC=C(Cl)C2=O)cc(OC)c1OCCCCC(=O)OCO/N=[N+](\[O-])N1CCOCC1 | 0.7 µM | 1.1 µM | 1.1 µM | Tde | Dose-Dependent Effect | Dose-Dependent Effect | Dose-Dependent Effect | 0.7 µM | Tde |  |  |  |  |  | 
COc1cc(/C=C/C(=O)N2CCC=CC2=O)cc(OC)c1OC [PIPLARTINE] | 8.6 µM | 13.2 µM | 13.3 µM | Tde | Dose-Dependent Effect |  | Dose-Dependent Effect | 7.2 µM | Tde |  |  |  |  |  | 
O=c1[nH]cc(F)c(=O)[nH]1 [FLUOROURACIL] | 19.7 µM |  | 29.6 µM |  |  |  |  | 24.2 µM |  |  |  |  |  |  | 
CCN(CC)OC(=O)CCCCOc1c(OC)cc(/C=C/C(=O)N2CCC=C(Cl)C2=O)cc1OC | 2.8 µM |  | 6.3 µM |  |  |  |  |  |  |  |  |  |  |  | 
